Test results from patent US20240217957A1, “HETEROCYCLIC COMPOUND AND USE THEREOF” (TAKEDA PHARMACEUTICAL COMPANY LIMITED, priority 2022, published 2024).

Each compound was assayed against T1, human OX2 receptor (Homo sapiens, UniProt O43614) (assay: Measurement of orexin type 2 receptor agonist activity (calcium fluorescence, Fluo-4 AM, FDSS)). Conditions: compound at 3 μM; CHO cells forcibly expressing human OX2 receptor; DMSO = 0%, 10 nM orexin A (human) = 100%.
T1 construct: expressed in transfected cells
T1 sequence (O43614 1-444): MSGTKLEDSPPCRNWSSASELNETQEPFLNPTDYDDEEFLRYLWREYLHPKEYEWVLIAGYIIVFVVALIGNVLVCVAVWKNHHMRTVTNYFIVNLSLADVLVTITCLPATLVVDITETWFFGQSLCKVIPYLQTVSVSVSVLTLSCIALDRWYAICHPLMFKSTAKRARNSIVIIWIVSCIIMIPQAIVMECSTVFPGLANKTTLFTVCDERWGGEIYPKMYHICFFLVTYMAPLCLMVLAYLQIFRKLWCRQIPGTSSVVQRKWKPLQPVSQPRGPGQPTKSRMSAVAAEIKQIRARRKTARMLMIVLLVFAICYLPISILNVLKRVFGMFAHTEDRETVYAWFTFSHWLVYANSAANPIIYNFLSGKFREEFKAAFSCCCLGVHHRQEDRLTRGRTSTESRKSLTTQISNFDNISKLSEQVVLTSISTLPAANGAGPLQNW
Format: cell-based
Protocol: In order to obtain cell clones that stably express human orexin type 2 receptor, human orexin type 2 (residues 1-444, NCBI Reference Sequence: AK314279) was constructed in a pcDNA3.1 (+) vector (Invitrogen) to express in mammalian cells. This plasmid DNA was transfected into CHO-K1 cells by electroporation, and stable clones were obtained by limiting dilution using resistance to G418 as a selection marker.
CHO cells in which human OX2 receptor was forcibly expressed were seeded at 10,000 cells/well into a 384-well black transparent bottom plate (BD falcon), and were incubated at 37° C., 5% CO2 for 1 day after incubation at room temperature for 30 minutes. After removing the cell plate medium, assay buffer containing calcium indicator A (HBSS (Thermo Fisher Scientific), 20 mM HEPES (Thermo Fisher Scientific), 0.1% BSA (Sigma-Aldrich), 2.5 μg/mL Fluo-4 AM (Dojin Kagaku), 0.08% Pluronic F127 (Dojin Kagaku), 1.25 mM probenecid (Dojin Kagaku)) was added at 30 μL/well. After incubation in a 5% CO2 incubator at 37° C. for 30 minutes, it was incubated at room temperature for another 30 minutes. Add 10 μL/well of the test compound diluted with assay buffer B (HBSS, 20 mM HEPES, 0.1% BSA), and use FDSS uCELL (Hamamatsu Photonics) to measure the fluorescence value every 1 second for 1 minute, and then every 2 seconds for […]. It was measured for 1 minute and 40 seconds. The amount of fluorescence value when DMSO is added instead of the test compound is defined as 0%, and the amount of fluorescence value when orexin A (human) (Peptide Institute) with a final concentration of 10 nM is added is defined as 100%. The activity (%) of the test compound was calculated.

Row | SMILES | OX2R agonist activity (3 μM, %) [%]
1 | Cc1cnc([C@@H]2CC(N3C[C@@H](NS(C)(=O)=O)[C@@](C)(F)C3)=NO2)c(-c2c(F)cccc2F)c1 (mixture of isomers) [Example 51, mixture of N-[(3R,4S)-1-{(5S)-5-[3-(2,6-difluorophenyl)-5-methylpyridin-2-yl]-4,5-dihydro-1,2-oxazol-3-yl}-4-fluoro-4-methylpyrrolidin-3-yl]methanesulfonamide and N-[(3S,4R)-1-{(5S)-5-[3-(2,6-difluorophenyl)-5-methylpyridin-2-yl]-4,5-dihydro-1,2-oxazol-3-yl}-4-fluoro-4-methylpyrrolidin-3-yl]methanesulfonamide] | 99
2 | Cc1cnc([C@@H]2CC(O[C@@H]3CC[C@H](NS(C)(=O)=O)C3)=NO2)c(-c2c(F)cc(F)cc2F)c1 (mixture of isomers) [Example 62, mixture of N-[(1R,3S)-3-({(5S)-5-[5-methyl-3-(2,4,6-trifluorophenyl)pyridin-2-yl]-4,5-dihydro-1,2-oxazol-3-yl}oxy)cyclopentyl]methanesulfonamide and N-[(1S,3R)-3-({(5S)-5-[5-methyl-3-(2,4,6-trifluorophenyl)pyridin-2-yl]-4,5-dihydro-1,2-oxazol-3-yl}oxy)cyclopentyl]methanesulfonamide] | 17
3 | Cc1cnc([C@@H]2CC(N3C[C@@H](C)[C@H](NS(C)(=O)=O)C3)=NO2)c(-c2c(F)cccc2F)c1 (single isomer, unassigned) [Example 71, optical isomer of N-[(3S,4R)-1-{(5S)-5-[3-(2,6-difluorophenyl)-5-methylpyridin-2-yl]-4,5-dihydro-1,2-oxazol-3-yl}-4-methylpyrrolidin-3-yl]methanesulfonamide or N-[(3R,4S)-1-{(5S)-5-[3-(2,6-difluorophenyl)-5-methylpyridin-2-yl]-4,5-dihydro-1,2-oxazol-3-yl}-4-methylpyrrolidin-3-yl]methanesulfonamide] | 108
4 | Cc1cnc([C@@H]2CC(N3C[C@@H](NS(C)(=O)=O)[C@@](C)(F)C3)=NO2)c(-c2c(F)cc(F)cc2F)c1 (single isomer, unassigned) [Example 75, optical isomer of N-[(3R,4S)-4-fluoro-4-methyl-1-{(5S)-5-[5-methyl-3-(2,4,6-trifluorophenyl)pyridin-2-yl]-4,5-dihydro-1,2-oxazol-3-yl}pyrrolidin-3-yl]methanesulfonamide or N-[(3S,4R)-4-fluoro-4-methyl-1-{(5S)-5-[5-methyl-3-(2,4,6-trifluorophenyl)pyridin-2-yl]-4,5-dihydro-1,2-oxazol-3-yl}pyrrolidin-3-yl]methanesulfonamide] | 105
5 | Cc1cnc([C@@H]2CC(N3C[C@H](F)[C@H](NS(=O)(=O)C4(F)CC4)C3)=NO2)c(-c2c(F)cc(F)cc2F)c1 (single isomer, unassigned) [Example 107, optical isomer of 1-fluoro-N-[(3R,4S)-4-fluoro-1-{(5S)-5-[5-methyl-3-(2,4,6-trifluorophenyl)pyridin-2-yl]-4,5-dihydro-1,2-oxazol-3-yl}pyrrolidin-3-yl]cyclopropane-1-sulfonamide or 1-fluoro-N-[(3S,4R)-4-fluoro-1-{(5S)-5-[5-methyl-3-(2,4,6-trifluorophenyl)pyridin-2-yl]-4,5-dihydro-1,2-oxazol-3-yl}pyrrolidin-3-yl]cyclopropane-1-sulfonamide] | 98
6 | Cc1cnc([C@@H]2CC(N3C[C@H](F)[C@H](NS(=O)(=O)C4(F)CC4)C3)=NO2)c(-c2c(F)cccc2F)c1 (single isomer, unassigned) [Example 117, optical isomer of N-[(3R,4S)-1-{(5S)-5-[3-(2,6-difluorophenyl)-5-methylpyridin-2-yl]-4,5-dihydro-1,2-oxazol-3-yl}-4-fluoropyrrolidin-3-yl]-1-fluorocyclopropane-1-sulfonamide or N-[(3S,4R)-1-{(5S)-5-[3-(2,6-difluorophenyl)-5-methylpyridin-2-yl]-4,5-dihydro-1,2-oxazol-3-yl}-4-fluoropyrrolidin-3-yl]-1-fluorocyclopropane-1-sulfonamide] | 105
7 | C[C@]1(F)CN(C2=NOC(c3c(F)cccc3-c3c(F)cccc3F)C2)C[C@H]1NS(C)(=O)=O (single isomer, unassigned) [Example 155, N-{(3R,4S)-4-fluoro-4-methyl-1-[5-(2′,3,6′-trifluoro[1,1′-biphenyl]-2-yl)-4,5-dihydro-1,2-oxazol-3-yl]pyrrolidin-3-yl}methanesulfonamide or N-{(3S,4R)-4-fluoro-4-methyl-1-[5-(2′,3,6′-trifluoro[1,1′-biphenyl]-2-yl)-4,5-dihydro-1,2-oxazol-3-yl]pyrrolidin-3-yl)methanesulfonamide] | 99
8 | C[C@]1(F)CN(C2=NOC(c3c(F)cc(F)cc3-c3c(F)cccc3F)C2)C[C@H]1NS(C)(=O)=O (single isomer, unassigned) [Example 164] | 97
9 | C[C@]1(F)CN(C2=NOC(c3c(F)ccc(F)c3-c3c(F)cccc3F)C2)C[C@H]1NS(C)(=O)=O (single isomer, unassigned) [Example 168] | 103
10 | CS(=O)(=O)N[C@H]1CCN(C2=NOC(c3ccccc3C3=CCCCC3)C2)C1 (stereo partly drawn) [Example 2, N-{(3S)-1-[5-(2′,3′,4′,5′-tetrahydro[1,1′-biphenyl]-2-yl)-4,5-dihydro-1,2-oxazol-3-yl]pyrrolidin-3-yl}methanesulfonamide] | 77
11 | CCS(=O)(=O)N[C@H]1CCN(C2=NOC(c3ccc(C)cc3-c3c(F)cccc3F)C2)C1 (stereo partly drawn) [Example 8, N-{(3S)-1-[5-(2′,6′-difluoro-5-methyl[1,1′-biphenyl]-2-yl)-4,5-dihydro-1,2-oxazol-3-yl]pyrrolidin-3-yl}ethanesulfonamide] | 104
12 | CCS(=O)(=O)N[C@H]1CCN(C2=NOC(c3cc(C(F)(F)F)nn3-c3c(F)cccc3F)C2)C1 (stereo partly drawn) [Example 9, N-[(3S)-1-{5-[1-(2,6-difluorophenyl)-3-(trifluoromethyl)-1H-pyrazol-5-yl]-4,5-dihydro-1,2-oxazol-3-yl}pyrrolidin-3-yl]ethanesulfonamide] | 13

Continued, values first:

Row | OX2R agonist activity (3 μM, %) [%] | SMILES
13 | 103 | CS(=O)(=O)N[C@H]1CCN(C2=NOC(c3ccccc3-c3c(F)cccc3F)C2)C1 (stereo partly drawn) [Example 1, N-{(3S)-1-[5-(2′,6′-difluoro[1,1′-biphenyl]-2-yl)-4,5-dihydro-1,2-oxazol-3-yl]pyrrolidin-3-yl}methanesulfonamide]
14 | 95 | CCS(=O)(=O)N[C@H]1CCN(C2=NOC(c3ccccc3-c3c(F)cccc3F)C2)C1 (stereo partly drawn) [Example 3, N-{(3S)-1-[5-(2′,6′-difluoro[1,1′-biphenyl]-2-yl)-4,5-dihydro-1,2-oxazol-3-yl]pyrrolidin-3-yl}ethanesulfonamide]
15 | 104 | CS(=O)(=O)N[C@@H]1CN(C2=NOC(c3ccccc3-c3c(F)cccc3F)C2)CC1(F)F (stereo partly drawn) [Example 4, N-{(3R)-1-[5-(2′,6′-difluoro[1,1′-biphenyl]-2-yl)-4,5-dihydro-1,2-oxazol-3-yl]-4,4-difluoropyrrolidin-3-yl}methanesulfonamide]
16 | 106 | CS(=O)(=O)N[C@H]1CCCN(C2=NOC(c3ccccc3-c3c(F)cccc3F)C2)CC1 (stereo partly drawn) [Example 5, N-{(4S)-1-[5-(2′,6′-difluoro[1,1′-biphenyl]-2-yl)-4,5-dihydro-1,2-oxazol-3-yl]azepan-4-yl}methanesulfonamide]
17 | 98 | CS(=O)(=O)N[C@H]1CCCN(C2=NOC(c3ccccc3-c3c(F)cccc3F)C2)C1 (stereo partly drawn) [Example 6, N-{(3S)-1-[5-(2′,6′-difluoro[1,1′-biphenyl]-2-yl)-4,5-dihydro-1,2-oxazol-3-yl]piperidin-3-yl}methanesulfonamide]
18 | 53 | CS(=O)(=O)NC1CCN(C2=NOC(c3ccccc3-c3c(F)cccc3F)C2)CC1 (stereo not drawn) [Example 7, N-{1-[5-(2′,6′-difluoro[1,1′-biphenyl]-2-yl)-4,5-dihydro-1,2-oxazol-3-yl]piperidin-4-yl}methanesulfonamide]
